Results as given in patent publication US8357686B2, “Aryl-substituted polycyclic amines, method for the production thereof, and use thereof as a medicament” (Sanofi-Aventis Deutschland GmbH, priority 2004, dated 2013).

System: female NMRI mice
Assay: Anorectic effect: cumulative condensed milk consumption in fasted mice
Format: in vivo
Conditions: oral dose 30 mg/kg by gavage after withdrawal of feed for 17 hours, condensed milk offered 30 minutes after administration, consumption determined for 7 hours, compared with vehicle-treated control animals
Description: The anorectic effect was tested on female NMRI mice. After withdrawal of feed for 17 hours, the test product was administered by gavage. The animals were housed singly with free access to drinking water and were offered condensed milk 30 minutes after administration of the product. The condensed milk consumption was determined every half hour for 7 hours, and the general wellbeing of the animals was observed. The measured milk consumption was compared with the vehicle-treated control animals.

Row | Compound | Reduction in cumulative milk consumption as % of the control [%]
1 | O=C(Nc1ccc(OC[C@@H]2CCCN3CCCC[C@H]23)cc1)N1CCC(c2ccc(Cl)cc2)CC1 [Example 37] | 24
2 | CCCCOc1ccc(C(=O)Nc2ccc(OC[C@@H]3CCCN4CCCC[C@H]34)cc2)cc1 [Example 2, 4-Butoxy-N-{4-[(1R,9aR)-1-(octahydroquinolizin-1-yl)methoxy]phenyl}-benzamide] | 73
